# According to patent US20130281504A1, “Reduction of Microglia-Mediated Neurotoxicity by KCa3.1 Inhibition” (THE REGENTS OF THE UNIVERSITY OF CALIFORNIA, priority 2010, published 2013):
# Key:
# Assay type in all cases: cell-based, mouse
# hippocampal slices = experiment: AβO-treated organotypic hippocampal slice cultures; conditions: iNOS inhibitors applied 1 hr prior to AβO; for AβO-induced NO production by hippocampal slices: FIG. 8C; for AβO-induced neuronal damage (PI uptake) in hippocampal slices: FIG. 8D
# Description: Hippocampal slice cultures (400 μm-thick) were prepared from 7-day-old C57BL/6J mice as previously described (25) and cultured for 10 days in vitro before use. Neuronal damage in the slices was monitored by PI uptake following Bernardino et al (27). PI itself is not toxic to neurons (27). […] After 24 hrs, the slices were observed under a Nikon Eclipse E600 microscope and the red (630 nm) fluorescence emitted by PI taken up by damaged cells was photographed by a digital camera (SPOT RTke, SPOT Diagnostics, Sterling Heights, Mich.) with fixed exposure time.
# For immunofluorescent staining of neurons, cultures were fixed in 4% paraformaldehyde and stained with anti-PSD95 (1:200, Cell Signaling), anti-MAP2 (1:500, Chemicon) and anti-acetylated α-tubulin (1:250, Zymed). For immunofluorescent staining of microglia, cultures or hippocampal slices were fixed in 4% paraformaldehyde and stained with anti-IBA1 (1:500, Wako Chemicals USA), anti-SRA (E-20, 1:200, Santa Cruz Biotechnology), and anti-CD11b (1:200, AbD Serotec USA, Raleigh, N.C.). The fixed cells or hippocampal slices were incubated with antibodies for overnight at 4° C. followed by secondary Alexa488 conjugated anti-mouse or Alexa568 conjugated anti-rabbit antibody (1:700, Molecular probes). Immunostained images were observed under a Nikon Eclipse E600 microscope and photographed by a digital camera (SPOT RTke, SPOT Diagnostics, Sterling Heights, Mich.).
# (§1) To obtain lysates, cells or tissues were washed with ice-cold PBS and incubated with a buffer containing 50 mmol/L Tris-HCl (pH 7.4), 150 mmol/L NaCl, 2% SDS, proteinase inhibitor cocktail (Sigma), and phosphatase inhibitor cocktail (Sigma). Lysates were briefly sonncated and cleared by centrifugation at 50,000 rpm for 10 min. Equivalent amounts of protein were analyzed by Tris/HCL gel electrophoresis. Proteins were transferred to polyvinylidene difluoride membranes and probed with antibodies. Visualization was performed using enhanced chemiluminescence (ECL, Amersham Pharmacia, Piscataway, N.J.).
# Conditioned medium collected from microglia cultures (1×10^5/0.75 cm^2) and hippocampal slices treated with Aβ for 24 hrs were analyzed by the Nitric Oxide Quantization Kit according to the protocol of the manufacturer (Active Motif, Carlsbad, Calif.). Data were normalized to the amount of total protein.
# microglia [1] = experiment: Assay for nitric oxide (nitrite) in microglia conditioned medium; conditions: for AβO-induced increase of microglia NO production: 5 μM 1400 W, 100 μM L-NIL, FIG. 8A
# hippocampal neurons [2] = experiment: Indirect neurotoxicity of conditioned medium from AβO-treated microglia on hippocampal neurons; conditions: microglia co-treated 24 hrs with 1400 W or L-NIL; 25% CM; FIG. 8B
# Description: Hippocampal neuronal cultures were prepared from newborn wild type C57BL/6J mice according to the method of Xiang et al (26). Neurons were cultured in NB/B27 at a density of 2.5×10^5 cells/well in 12-well plates or 8×10^5 cells/well in 6-well plates for at least 14 days before they were treated with microglia CM.
# Hippocampal neurons were prepared as described above and were plated onto 96-well plate at a density of 6×10^4 cells/well and cultured for 14 days. CM from microglia cultures was added onto neurons with indicated dilutions, and cultures were incubated for 24 hrs.
# For immunofluorescent staining of neurons, cultures were fixed in 4% paraformaldehyde and stained with anti-PSD95 (1:200, Cell Signaling), anti-MAP2 (1:500, Chemicon) and anti-acetylated α-tubulin (1:250, Zymed). […] Immunostained images were observed under a Nikon Eclipse E600 microscope and photographed by a digital camera (SPOT RTke, SPOT Diagnostics, Sterling Heights, Mich.).
# For quantification of the PSD95-immunoreactive puncta along the dendrites, photomicrographs of PSD95 immunostained cultures were randomly taken from each culture condition. The images were transformed to 8 bit gray scale and analyzed with the Image J program. The number of puncta in each photomicrograph was counted and normalized by dendritic length. The photography and analysis were conducted in an investigator-blinded manner
# microglia [3] = experiment: AβO-induced microglia proliferation/activation (cell number); conditions: for microglia cell counts, % of solvent-treated controls: mean±S.E
# hippocampal neurons [4] = experiment: Viability of cultured hippocampal neurons, direct AβO; conditions: direct addition
# NFκB = NFκB assay in microglia; conditions: AβO, 2 hrs
# Description: The detection of cells with active NFκB was performed according to the method described by Franciosi, S., et al.; (2006) J Neurosci 26, 11652-11664. Briefly, microglia were plated as described above and treated with activators for 2 hrs. Cells were fixed and stained with anti-NF-κBp65 antibody (1:250, Chemicon) and with the nuclear dye DAPI.
# p38MAPK = p38MAPK phosphorylation in microglia (Western blot); conditions: AβO, 30 minutes
# Description: Primary microglia cultures derived from newborn C57BL/6J mice were prepared from mixed glia cultures with the “shaking off” method described by Maezawa, I., et al.; (2006) FASEB J 20, 797-799. […] To obtain conditioned medium (CM) for treating neurons, microglia were first cultured in 24-well culture plates at a density of 1.3×10^5 cells/cm^2 for 24 hrs in DMEM with 10% fetal bovine serum (DMEM10). Cultures were washed extensively and changed to the Neurobasal medium with B27 supplement (NB/B27, Invitrogen) without serum and cultured for another 24 hrs. The NB/B27-based microglia CMs were collected, briefly centrifuged, and used immediately or frozen for future uses.
# as §1
# The following primary antibodies (dilutions) were used: anti-p38MAPK (1:1000, Cell Signaling Technology, Boston, Mass.), anti-phospho-p38MAPK (1:1000, Cell Signaling Technology), anti-Synaptophysin (1:1000, Abcam), anti-PSD95 (1:1000, cell signaling), anti-GRIP 1 (1:1000, UpState), anti-MAP2 (1:1000, Chemicon), anti-acetylated α-tubulin (1:2000, Zymed), and anti-β-actin (1:3000, Sigma). Secondary antibodies were HRP-conjugated anti-rabbit, anti-goat, or anti-mouse antibody (1:3000 Amersham).
molecule,measurement,setting,value
"CC(=N)NCc1cccc(CN)c1 [1400 W, N-[(3-aminomethyl)benzyl]acetamidine, reference compound]",AβO-induced NO production by hippocampal slices,hippocampal slices,blocked
same,AβO-induced neuronal damage (PI uptake) in hippocampal slices,hippocampal slices,blocked
same,AβO-induced increase of microglia NO production,microglia [1],prevented
same,AβO-induced microglial neurotoxicity (neuronal viability),hippocampal neurons [2],blocked
"Nc1c(/N=N/c2ccc(-c3ccc(/N=N/c4cc(S(=O)(=O)O)c5ccccc5c4N)cc3)cc2)cc(S(=O)(=O)O)c2ccccc12 [Congo red, reference compound]",AβO mitogenic effect on microglia (cell numbers),"microglia [3]; 20 nM AβO, 24 hrs, A11 50 nM, CR 100 nM, FIG. 1D",blocked
same,microglia activation / mitogenic effect induced by human brain AβO,microglia [3]; soluble AD hippocampus extracts,blocked
"CC(=N)NCCCC[C@H](N)C(=O)O [L-NIL, N-iminoethyl-Llysine, reference compound]",AβO-induced NO production by hippocampal slices,hippocampal slices,blocked
same,AβO-induced neuronal damage (PI uptake) in hippocampal slices,hippocampal slices,blocked
same,AβO-induced increase of microglia NO production,microglia [1],prevented
same,AβO-induced microglial neurotoxicity (neuronal viability),hippocampal neurons [2],blocked
"AβO: synthetic Aβ42 peptide oligomers, microglia activator",increase of NO release per cell,"microglia [1]; AβO 24 hr, normalized to total cellular protein",~80%
same,AβO concentrations affecting viability of cultured hippocampal neurons,hippocampal neurons [4],above 100 nM
same,AβO concentration at which microglia proliferation maximizes,microglia [3],around 50 nM
same,AβO concentration at which microglia proliferation starts,microglia [3],5 nM
same,"microglia cell counts, % of solvent-treated controls","microglia [3]; 20 nM AβO, 24 hr",184±8.59%
same,"microglia cell counts, % of solvent-treated controls","microglia [3]; 20 nM AβO, 48 hr",330±21.8%
same,increase of cells with active NFκB immunoreactivity,NFκB,six-fold increase
same,"phosphorylated p38MAPK, % of vehicle treatment control",p38MAPK,225±38%
"polyinosinic acid [poly I, reference compound]",AβO-induced microglia activation / proliferation,"microglia [3]; 20 nM AβO 24 hrs, 100 ng/ml poly I, 10 μg/ml E-20, 20 μM doxycycline, 1 μM TRAM-34, FIG. 3",blocked
